# Measured values from patent publication US20240118287A1, “ANALYSIS PLATE FOR A MASS SPECTROMETRY ANALYSIS AND ASSOCIATED METHOD FOR CHARACTERIZING MICROORGANISMS BY MASS SPECTROMETRY” (priority 2021, published 2024).
# Legend:
# Assay type in all cases: cell-based
# Ref 7 S. aureus = assay: MIC by microdilution in broth, reference strain Ref 7; parameters: key to Phenotype (R = resistant, S = sensitive): RA signifies resistance to amoxicillin; RC signifies resistance to ceftriaxone; RM signifies resistance to meropenem; RO resistance to oxacillin; SA signifies sensitive to amoxicillin; SC signifies sensitive to ceftriaxone; SM signifies sensitive to meropenem; SO sensitive to oxacillin; details: mecA
# Procedure: (§1) The minimum inhibitory concentration (MIC in μg/ml) was determined by microdilution in broth, a technique very widely used by a person skilled in the art.
# Ref 6 S. aureus = assay: MIC by microdilution in broth, reference strain Ref 6; parameters: key to Phenotype (R = resistant, S = sensitive): RA signifies resistance to amoxicillin; RC signifies resistance to ceftriaxone; RM signifies resistance to meropenem; RO resistance to oxacillin; SA signifies sensitive to amoxicillin; SC signifies sensitive to ceftriaxone; SM signifies sensitive to meropenem; SO sensitive to oxacillin
# Procedure: as §1
# [1] = test system: Isolate 12 (Staphylococcus epidermidis); assay: Resistance characterization on functionalized analysis plate, MALDI-TOF (Example 4); details: isolate 12 (S. epidermidis); oxacillin 2 μg/ml; threshold identification probability ≥90% for at least 3 deposits out of 4
# Procedure: (§2) This cassette comprises a gasket so as to be able to dispose the analysis plate on a sponge impregnated to saturation with Muller-Hinton culture medium. The sponge impregnated with a culture medium serves as a support, and it is made of porous material as described in the description.
# (§3) A cover was placed on the cassette containing the analysis plate so as to be clipped on the cassette and close the device without touching the top of the drops.
# (§4) The analysis cassettes thus prepared were incubated in the stove at 37° C. for 2, 3, 4 or 5 hours.
# (§5) At the end of the incubation step, the analysis plates are placed on very absorbent, dry blotting paper, with an absorption capacity of 25 μL·cm^−2, so that the drops present on the analysis plate are aspirated by capillarity through the analysis zones made of porous material.
# (§6) 1 μl of HCCA matrix, alpha-cyano 4-hydroxycinnamic acid (VITEK®MS-CHCA, bioMérieux reference 411071) was deposited on the analysis zones, comprising the microorganisms and the antimicrobial agent, and on the calibration zones comprising the calibrant.
# (§7) The analysis plate is then dried and analyzed by VITEK®MS as described in example 1.
# (§8) The isolates identified in example 1 were diluted to 0.5 McFarland (McF) in Muller-Hinton medium (bioMérieux reference AEB 110699), then diluted again to 1/100° for the Gram-negative bacteria and to 1/10° for the Gram-positive bacteria, always in Muller-Hinton medium.
# (§9) Drops of 2 μl of the final dilutions were deposited on the analysis zones of the analysis plates according to the invention as described in example 2. As before, the dilutions of E. coli and of K. pneumoniae were analyzed on the targets with 16 deposits of amoxicillin, 16 deposits of ceftriaxone and 16 deposits of meropenem. The dilutions of Staphylococci were analyzed on the targets with 2 μg/ml of oxacillin.
# (§10) When no sample deposit was provided on an analysis zone, this zone is covered with a Parafilm M plastic film (Bemis North America) before putting the analysis plate in the cassette. In this way, the analysis zone was not brought into contact with the culture medium contained in the sponge impregnated to saturation. The positions unused in the first analysis thus remained usable for a subsequent analysis.
# (§11) The analysis was carried out according to the same procedure as in example 3 with an incubation of 4 h for all the microorganisms. Moreover, the results were interpreted as in example 3, i.e. with a threshold of identification probability greater than or equal to 90% for at least 3 deposits out of 4.
# [2] = test system: Isolate 11 (Staphylococcus aureus); assay: as above; details: isolate 11 (S. aureus); oxacillin 2 μg/ml; threshold identification probability ≥90% for at least 3 deposits out of 4
# Procedure: as §2, §3, §4, §5, §6, §7, §8, §9, §10, §11
# [3] = test system: Isolate 9 (Staphylococcus aureus); assay: as above; details: isolate 9 (S. aureus); oxacillin 2 μg/ml; threshold identification probability ≥90% for at least 3 deposits out of 4
# Procedure: as §2, §3, §4, §5, §6, §7, §8, §9, §10, §11
# [4] = test system: Isolate 10 (Staphylococcus aureus); assay: as above; details: isolate 10 (S. aureus); oxacillin 2 μg/ml; threshold identification probability ≥90% for at least 3 deposits out of 4
# Procedure: as §2, §3, §4, §5, §6, §7, §8, §9, §10, §11
# [5] = test system: Isolate 12 (Staphylococcus epidermidis); assay: MIC determination on analysis plate with oxacillin concentration range, MALDI-TOF (Example 5); details: read-out: MIC by the method of the invention
# Procedure: as §4, §5, §6, §7
# (§12) The dilutions of Staphylococci of the reference strains and of the isolates were analyzed on the analysis plates according to the invention with 4 deposits of oxacillin at 0.125 μg/ml, 4 deposits of oxacillin at 0.25 μg/ml, 4 deposits of oxacillin at 0.5 μg/ml, 4 deposits of oxacillin at 1 μg/ml, 4 deposits of oxacillin at 2 μg/ml, 4 deposits of oxacillin at 4 μg/ml, 4 deposits of oxacillin at 8 μg/ml, 4 deposits of oxacillin at 16 μg/ml, 4 deposits of oxacillin at 32 μg/ml, 4 deposits of oxacillin at 64 μg/ml, 4 deposits of oxacillin at 128 μg/ml, 4 deposits of oxacillin at 256 μg/ml.
# [6] = test system: Isolate 11 (Staphylococcus aureus); assay: as above; details: read-out: MIC by the method of the invention
# Procedure: as §4, §5, §6, §7, §12
# [7] = test system: Isolate 9 (Staphylococcus aureus); assay: as above; details: read-out: MIC by the method of the invention
# Procedure: as §4, §5, §6, §7, §12
# [8] = test system: Isolate 10 (Staphylococcus aureus); assay: as above; details: read-out: MIC by the method of the invention
# Procedure: as §4, §5, §6, §7, §12
# [9] = test system: Reference strain No. 6 (S. aureus); assay: as above
# Procedure: as §4, §5, §6, §7, §12
# [10] = test system: reference strain No. 7 (S. aureus); assay: as above
# Procedure: as §4, §5, §6, §7, §12
# [11] = Staphylococcus aureus, microdilution in broth, read-out: Minimum inhibitory concentration (MIC in μg/ml)
smiles,measurement,setting,value
"Cc1onc(-c2ccccc2)c1C(=O)N[C@@H]1C(=O)N2[C@@H]1SC(C)(C)[C@@H]2C(=O)O [Oxacillin, oxacillin]",MIC,Ref 7 S. aureus; [11],128 µg/mL
same,"Phenotype (R = resistant, S = sensitive)",Ref 7 S. aureus,RO
same,"Phenotype (R = resistant, S = sensitive)",Ref 6 S. aureus,SO
same,MIC,Ref 6 S. aureus; [11],0.25 µg/mL
same,Isolate characterized as resistant or sensitive to the antibiotic,[1],sensitive
same,Isolate characterized as resistant or sensitive to the antibiotic,[2],sensitive
same,Isolate characterized as resistant or sensitive to the antibiotic,[3],resistant
same,Isolate characterized as resistant or sensitive to the antibiotic,[4],sensitive
same,MIC,[5],0.125 µg/mL
same,MIC,[6],0.5 µg/mL
same,MIC,[7],16 µg/mL
same,MIC,[8],0.25 µg/mL
same,MIC,"[9]; Staphylococcus aureus, equals Table 2 MIC, read-out: MIC, lowest growth inhibiting concentration observed by the method of the invention",0.25 µg/mL
same,Identification as S. aureus,[9]; higher concentrations of oxacillin (above 0.25 μg/ml),not identified
same,Identification probability as S. aureus,"[9]; oxacillin 0.125 μg/ml, in 3 deposits out of 4",greater than 99.9%
same,Identification probability as S. aureus,"[9]; oxacillin 0.25 μg/ml, for 1 deposit out of 4",greater than 99.9%
same,MIC,"[10]; Staphylococcus aureus, compliant with Table 2, read-out: MIC by the method of the invention",128 µg/mL
same,Identification probability as S. aureus,[10]; oxacillin 0.125 at 64 μg/ml,99.9%
same,Identification as S. aureus,[10]; oxacillin 128 and 256 μg/ml,not identified
